In brackets after ≈: the same amount, converted by molar mass.
Columns and labels:
[1] = Metabolic stability of liver microsomes in vitro (human); format: in vitro ADME; details: read-out: Human T1/2/min
Experimental: Microsomes were taken out from the −80° C. refrigerator, rapidly melted in a 37° C. water bath and placed on ice until ready to use. The test article was diluted with DMSO to prepare a 10 mM stock solution, and then diluted with acetonitrile to a 0.5 mM secondary stock solution. The microsomes were diluted to 0.75 mg/ml using Buffer C; the secondary stock solution was then added to a final concentration of 1.5 μM of compound as working solution, based on n=2, 5 time points, 350 μL of each compound was prepared and placed on ice prior to use. NADPH was diluted with Buffer C to a working solution of 6 mM for the starter solution. An acetonitrile solution containing an internal standard was prepared as the precipitant, and Verapamil-HCl was chosen as the internal standard at a concentration of 4 ng/ml.
A round-bottom well plate was taken, noted as the reaction plate, and the prepared working solution for each compound was dispensed into the well plate according to the number of replicates and time points (0 h samples are also added to the reaction plate), 30 μL/well; the plate was incubated at 37° C. for 10 min. A separate plate with pointed bottom wells, noted as a precipitation plate, was added with 135 μL precipitant per well; 0 h samples were transferred to the plate after 10 min incubation and 15 μL of starter solution was added; the plate was placed on ice before centrifugation.
The diluted starter solution was added in sufficient quantity to the dispensing plate to facilitate the multichannel pipette aspiration operation.
The reaction was carried out on a warm incubation shaker and 15 μL of starter solution/sample is added to the plate using a multichannel pipette. The reaction was mixed with a slight shake to initiate the reaction, which was accurately timed and recorded using a timer;
After the reaction time had elapsed, all the solution in the plate was aspirated using the multichannel pipette and added to the precipitation plate to terminate the reaction at that point in time. After all reactions had been terminated, the plates were shaken for ten minutes on a plate shaker at 600 rpm to precipitate the protein. The plate was centrifuged at 4° C. for 15 minutes at maximum rpm. 80 μL of supernatant was taken, 320 μL of pure water was added and mixed for LC-MS analysis.

Solubility test = format: physicochemical; details: aqueous buffer, thermodynamic from solid; buffer solution, shaken at constant temperature 24 h
Experimental: The compound was placed in a buffer solution and shaken at constant temperature for 24 h. […] Chromatographic conditions: C18 column, mobile phase A: 0.02 M potassium dihydrogen phosphate:acetonitrile=90:10, mobile phase B: acetonitrile; V: 1.0 ml/min, T: 35° C., λ: 210 nm.

Wee1 protein = biological target: T1, Wee1 protein (Homo sapiens, UniProt P30291); assay: Binding of compound to Wee1 protein and Tracer 178 by TR-FRET; details: inhibitory activity against Wee1 kinase, read-out: IC50 measured value
T1 construct: purchased Thermo Fisher PR7373A
Experimental: First, solutions of the compounds in different concentration gradients were prepared. […] DMSO was added as a positive control (maximal signal control) and a negative control (minimal signal control) and a final level of 0.25% DMSO was ensured in each reaction well.
WEE1 (Thermo Fisher, Cat #PR7373A) protein in buffer (50 mM Hepes pH 7.5, 10 mM MgCl2, 1 mM EGTA, 0.01% Brij-35) at 15 nM) in different concentrations of compound, and Tracer 178 (Invitrogen, PV5593) and MAb Anti-GST-Eu crypate (Cisbio, 61GSTKLA) were added to 384-well plates (Corning, cat #3574), centrifuged at 1000 rpm for 1 min and the 384-well plates were incubated in a constant temperature shaker for 60 min at 25° C. and 300 rpm. Tracer 178 and MAb Anti-GST-Eu crypate were prepared in buffer (50 mM HEPES pH 7.5, 10 mM MgCl2, 1 mM EGTA, 0.01% Brij-35) with a final reaction concentration of 50 nM for Tracer 178 and a final concentration of 2 nM for MAb Anti-GST-Eu crypate, where the negative control (minimal signal control) used an equal amount of buffer in place of the protein solution.
After incubation, readings were performed using BMG PHERAStar (excitation light at 337 nm and emission light at wavelength values of 620 nm and 665 nm to read the fluorescence signal values). […] The IC50 for inhibition of enzyme activity by the compounds was then calculated using GraphPad Prism 6 and fitted with a log (inhibitor) vs. response-Variable slope mode. The fitting equation was: Y=Bottom+(Top-Bottom)/(1+10^((Log IC50−X)*HillSlope)), where Y represents the percentage of residual enzyme activity known and X represents the known concentration of compound after the logarithm.

CYP3A4 = CYP3A4 (Homo sapiens, UniProt P08684); assay: Inhibition of cytochrome P450, CYP3A4; format: in vitro ADME; details: CYP3A4 enzyme, pH 7.4, probe BOMCC, read-out: CYP inhibition/% 3A4; for inhibition at 30 min, 1 µM: compound concentration 1 μM; for inhibition at 30 min, 10 µM: compound concentration 10 μM
Experimental: Enzymatic experiments were performed to quantify the inhibition of CYP450 enzyme activity of each isoform of CYP450 by small molecule inhibitors through fluorescence generated by the oxidation of the substrate by cytochrome P450. […] The Solution B composition used for the experiment was: 40 U/mL G6PDH (Sigma-aldrich, Cat #G6378). The substrate mix was 0.05× Solution A, 0.01× Solution B, 50 mM Potassium Phosphate, 0.01 mM BOMCC/0.01 mM EOMCC/0.001 mM DBOMF. […] The data were analyzed and processed using GraphPad Prism 6 software to obtain IC50 values.

T1 sequence (P30291 whole entry): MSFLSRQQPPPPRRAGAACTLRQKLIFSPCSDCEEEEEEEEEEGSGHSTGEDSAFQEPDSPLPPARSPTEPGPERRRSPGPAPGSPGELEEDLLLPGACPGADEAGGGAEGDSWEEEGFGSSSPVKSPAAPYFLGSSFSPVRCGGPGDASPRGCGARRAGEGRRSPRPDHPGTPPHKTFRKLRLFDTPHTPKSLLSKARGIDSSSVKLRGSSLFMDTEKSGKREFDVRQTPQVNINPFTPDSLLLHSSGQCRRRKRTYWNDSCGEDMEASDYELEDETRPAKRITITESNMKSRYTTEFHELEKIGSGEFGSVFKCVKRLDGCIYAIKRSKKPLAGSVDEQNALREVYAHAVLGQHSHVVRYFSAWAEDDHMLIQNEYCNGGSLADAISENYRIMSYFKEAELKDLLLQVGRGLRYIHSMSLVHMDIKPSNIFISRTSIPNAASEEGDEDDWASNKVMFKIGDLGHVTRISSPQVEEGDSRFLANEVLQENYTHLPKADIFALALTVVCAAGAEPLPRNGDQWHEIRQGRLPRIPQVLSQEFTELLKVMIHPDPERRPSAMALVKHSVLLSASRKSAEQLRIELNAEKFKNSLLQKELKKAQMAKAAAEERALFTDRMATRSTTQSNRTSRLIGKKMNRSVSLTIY
CYP3A4, sequence (P08684 whole entry, canonical isoform): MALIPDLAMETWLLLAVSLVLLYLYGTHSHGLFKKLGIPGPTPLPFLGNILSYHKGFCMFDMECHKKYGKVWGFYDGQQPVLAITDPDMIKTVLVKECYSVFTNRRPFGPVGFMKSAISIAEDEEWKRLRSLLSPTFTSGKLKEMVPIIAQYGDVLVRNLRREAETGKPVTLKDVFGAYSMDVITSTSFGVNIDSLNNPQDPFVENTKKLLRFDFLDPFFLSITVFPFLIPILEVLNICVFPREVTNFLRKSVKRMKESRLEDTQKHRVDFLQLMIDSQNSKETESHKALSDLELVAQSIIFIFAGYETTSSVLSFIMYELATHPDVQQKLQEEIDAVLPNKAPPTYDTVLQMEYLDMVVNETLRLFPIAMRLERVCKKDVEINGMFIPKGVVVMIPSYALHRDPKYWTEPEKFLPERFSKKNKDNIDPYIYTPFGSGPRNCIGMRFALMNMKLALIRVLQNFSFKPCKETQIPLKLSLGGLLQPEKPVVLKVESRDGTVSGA

SMILES	half-life at 1 µM [1] [h]	solubility at 24 h (Solubility test) [µg/mL]	IC50 (Wee1 protein) [µM]	inhibition at 30 min, 1 µM (CYP3A4) [%]	inhibition at 30 min, 10 µM (CYP3A4) [%]
CN1CCN(c2ccc(Nc3ncc4cnn(-c5cccc(N=S(C)(C)=O)n5)c4n3)cc2)CC1 [Compound 1]	> 2	120 (≈ 251 µM)	0.001 to 0.01	8.1	10.9
CN1CCN(c2ccc(Nc3ncc4cnn(-c5cccc(C(C)(C)O)n5)c4n3)cc2)CC1 [Compound 2]	> 2	–	0.01 to 0.1	0	-10.6
CS(C)(=O)=Nc1cccc(-n2ncc3cnc(Nc4ccc(N5CCOCC5)cc4)nc32)n1 [Compound 6]	–	–	0.01 to 0.1	-26.1	-25.7
Cc1cc(Nc2ncc3cnn(-c4cccc(N=S(C)(C)=O)n4)c3n2)ccc1N1CCC(N(C)C)CC1 [Compound 14]	> 2	–	0.001 to 0.01	–	–

Results, then the compound that gave them:

half-life at 1 µM [1] [h]	solubility at 24 h (Solubility test) [µg/mL]	IC50 (Wee1 protein) [µM]	inhibition at 30 min, 1 µM (CYP3A4) [%]	inhibition at 30 min, 10 µM (CYP3A4) [%]	SMILES
> 2	30 (≈ 59.9 µM)	–	–	–	C=CCn1c(=O)c2cnc(Nc3ccc(N4CCN(C)CC4)cc3)nc2n1-c1cccc(C(C)(C)O)n1 [AZD-1775, reference compound]
> 2	350 (≈ 712 µM)	0.001 to 0.01	–	–	Cc1cc(Nc2ncc3cnn(-c4cccc(N=S(C)(C)=O)n4)c3n2)ccc1N1CCN(C)CC1 [Compound 16]

Reference: patent US12649748B2, “Wee1 inhibitor and use thereof” (JIANGSU TASLY DIYI PHARMACEUTICAL CO., LTD., priority 2021, dated 2026)
